Experimental data published in patent publication US9096615B2, “Bridged bicyclic amino thiazine dioxide compounds as inhibitors of beta-secretase and methods of use thereof” (AMGEN INC., priority 2013, dated 2015).
Like-named read-outs stand apart in the source and are kept apart here.

Columns and labels:
Cathepsin D (Cat D) = biological target: T1, Cathepsin D (Cat D) (Homo sapiens, UniProt P07339); test: In vitro enzymatic Cathepsin D (Cat D) FRET assay; assay type: biochemical; conditions: read-out: CatD IC50
T1 construct: made in house; host or cells: CHO cells
Experimental: In Vitro Enzymatic Cathepsin D (Cat D) FRET (Fluorescence Resonance Energy Transfer) Assay
Recombinant Cat D was expressed in CHO cells. The assay buffer for CathepsinD is 0.05 M citrate pH 3.5, 10% DMSO final, 5 mM CHAPS. The Cat D enzyme (9 nM) is pre-incubated for one hour with inhibitors, typically in about 1 uL of DMSO according to a serial dilution, is added thereto. The assays are effectively started by the addition of different FRET substrates (20 nM for Cat D) and the combination is incubated for one hour. The FRET assay is terminated with by addition of Tris buffer, which raises the pH to neutrality, and the fluorescence is determined. The FRET substrate is a peptide with commercially available fluorophore and quencher, on opposite sides of the BACE cleavage site. The Cat D substrate peptide sequence is based on sequence #1 of Table 1 from Gulnik et al. FEBS Letters v413 p 379-384 1997. Proteolytic cleavage of the FRET substrate releases quenching of fluorescence (Cat D excitation 500 nm and emission 580 nm). […]
Where available, the in-vitro Cat D FRET assay data for each of the Examples, conducted by the first procedure, is provided in Tables 1 and 3. For example, the compound of example 28 has a Cat D IC50 value of >400 uM.

BACE1 = BACE1 (Homo sapiens, UniProt P56817); test: In vitro enzymatic BACE FRET assay; assay type: biochemical
Experimental: In Vitro Enzymatic BACE FRET (Fluorescence Resonance Energy Transfer) Assay
Enzyme Assay Data in the Example Table I
The assay buffer used in this screen is 0.05 M acetate, pH 4.2, 10% DMSO final, 100 uM genapol (which is a nonionic detergent, below its Critical Micelle Concentration). The Beta Secretase enzyme (0.2 nM) is pre-incubated for one hour with inhibitors, typically in about 1 uL of DMSO according to a serial dilution, are added thereto. This assay is effectively started by the addition of FRET substrate (50 nM) and the combination is incubated for one hour. The FRET assay is terminated with by addition of Tris buffer, which raises the pH to neutrality, and the fluorescence is determined. The FRET substrate is a peptide with commercially available fluorophore and quencher, on opposite sides of the BACE cleavage site. Proteolytic cleavage of the FRET substrate releases quenching of fluorescence (excitation 488 nm and […]).

[1] = system: Aβ40 in conditioned medium of cells stably expressing Amyloid Precursor Protein (APP); test: In vitro BACE cell-based assay (HEK cell assay, Aβ40 sandwich ELISA); conditions: Homo sapiens, HEK293
Experimental: In Vitro BACE Cell-Based Assay
The cell-based assay measures inhibition or reduction of Aβ40 in conditioned medium of test compound treated cells expressing amyloid precursor protein.
Cells stably expressing Amyloid Precursor Protein (APP) were plated at a density of 40K cells/well in 96 well plates (Costar). The cells were cultivated for 24 hours at 37° C. and 5% CO2 in DMEM supplemented with 10% FBS. The test compounds were then added to cells in 10-point dose response concentrations with the starting concentration being either 100 μM or 10 μM. The compounds were diluted from stock solutions in DMSO and the final DMSO concentration of the test compounds on cells was 0.1%. After 24 h of incubation with the test compounds the supernatant conditioned media was collected and the Aβ 40 levels were determined using a sandwich ELISA. The IC50 of the compound was calculated from the percent of control or percent inhibition of Aβ 40 as a function of the concentration of the test compound.
The sandwich ELISA to detect Aβ 40 was performed in 96 well microtiter plates, which were pre-treated with goat anti-rabbit IgG (Pierce). The capture and detecting antibody pair that were used to detect Aβ 40 from cell supernatants were affinity purified pAb40 (Biosource) and biotinylated 6E10 (Signet Labs Inc.), respectively. The optimal concentration for the pAb40 antibody was 3 μg/ml in Superblock/TBS (Pierce) that was supplemented with 0.05% Tween 20 (Sigma). Optimal concentration for the detection antibody 6E10-biotinylated was 0.5 μg/ml in Superblock/TBS (Pierce) that had been supplemented with 2% normal goat serum and 2% normal mouse serum.
Cellular supernatants were incubated with the capture antibody for 3 h at 4° C., followed by 3 wash steps in TBS-tween (0.05%). The detecting antibody incubation was for 2 h at 4° C., again followed by the wash steps as described previously. The final readout of the ELISA is Time-Resolved Fluorescence (counts per minute) using Delfia reagents Streptavidin-Europium and Enhancement solutions (Perkin Elmer) and the Victor 2 multilabel counter (Perkin Elmer).

[2] = average IC50, read-out: BACE1 Enzyme assay IC50
[3] = average IC50, read-out: BACE1 cell assay IC50
[4] = read-out: BACE1 FRET assay IC50
[5] = Aβ40, 24 h incubation, read-out: HEK cell assay IC50

T1 sequence (P07339 65-412, species assumed): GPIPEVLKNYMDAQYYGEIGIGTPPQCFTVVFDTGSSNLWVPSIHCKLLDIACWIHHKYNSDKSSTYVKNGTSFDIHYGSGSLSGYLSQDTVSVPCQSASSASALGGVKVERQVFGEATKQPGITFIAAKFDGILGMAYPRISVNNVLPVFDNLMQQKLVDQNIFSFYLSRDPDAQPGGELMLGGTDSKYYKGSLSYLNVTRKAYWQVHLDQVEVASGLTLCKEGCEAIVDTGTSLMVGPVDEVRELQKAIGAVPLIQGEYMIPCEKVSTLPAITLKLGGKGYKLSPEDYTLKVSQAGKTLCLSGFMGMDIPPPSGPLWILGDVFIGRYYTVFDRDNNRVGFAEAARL
BACE1, sequence (P56817 46-501, species assumed): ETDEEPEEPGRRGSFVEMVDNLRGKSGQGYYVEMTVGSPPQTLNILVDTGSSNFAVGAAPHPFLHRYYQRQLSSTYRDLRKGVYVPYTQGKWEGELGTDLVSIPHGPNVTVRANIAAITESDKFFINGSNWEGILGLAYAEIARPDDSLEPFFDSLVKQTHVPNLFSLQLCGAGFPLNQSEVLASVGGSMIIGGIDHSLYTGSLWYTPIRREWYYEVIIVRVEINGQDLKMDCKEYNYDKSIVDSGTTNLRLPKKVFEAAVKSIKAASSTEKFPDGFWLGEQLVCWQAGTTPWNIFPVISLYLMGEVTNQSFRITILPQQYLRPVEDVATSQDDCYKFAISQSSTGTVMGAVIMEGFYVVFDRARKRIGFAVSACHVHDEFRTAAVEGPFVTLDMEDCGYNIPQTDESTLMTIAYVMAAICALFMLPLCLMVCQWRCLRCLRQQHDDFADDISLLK

Structure (SMILES) | IC50 (Cathepsin D (Cat D); average IC50, first procedure) [µM] | IC50 (BACE1; [2]) [nM] | IC50 [1, 3] [nM] | IC50 (Cathepsin D (Cat D)) [µM] | IC50 (BACE1; [4]) [nM] | IC50 [1, 5] [nM]
Cc1cc(C(F)(F)F)cnc1C(=O)Nc1ccc(F)c([C@@]2(CF)N=C(N)[C@@]3(C)CC[C@@H]2S3(=O)=O)c1 (single isomer, unassigned) [Example 114] | 3460 | 61 | 82 |  |  | 
Cc1cc(C(F)(F)F)cnc1C(=O)Nc1ccc(F)c([C@@]2(CF)N=C(N)[C@]3(C)CC[C@H]2S3(=O)=O)c1 (single isomer, unassigned) [Example 116] | 255 | 44 | 47 |  |  | 
COc1cnc(C(=O)Nc2ccc(F)c([C@@]3(CF)N=C(N)[C@@]4(C)CC[C@@H]3S4(=O)=O)c2)cn1 (single isomer, unassigned) [Example 120] | > 400 | 49 | 88 |  |  | 
COc1cnc2c(Nc3ccc(F)c([C@@]4(C)N=C(N)[C@@H]5CCC[C@H]4S5(=O)=O)c3)nccc2n1 (stereo in doubt) [Example 19] |  |  |  | 1210 | 323 | 179
COc1cnc2c(Nc3ccc(F)c([C@@]4(C)N=C(N)[C@@]5(C)CCC[C@@H]4S5(=O)=O)c3)nccc2n1 [Example 1, (1R,4R,5S)-2-Amino-4-(2-fluoro-5-((2-methoxypyrido[3,4-b]pyrazin-5-yl)amino)phenyl)-1,4-dimethyl-9-thia-3-azabicyclo[3.3.1]non-2-ene 9,9-dioxide] |  |  |  | 45.8 | 37 | 57
COc1cnc2c(Nc3ccc(F)c([C@@]4(C)N=C(N)[C@]5(C)CCC[C@H]4S5(=O)=O)c3)nccc2n1 [Example 2, (1S,4R,5R)-2-Amino-4-(2-fluoro-5-((2-methoxypyrido[3,4-b]pyrazin-5-yl)amino)phenyl)-1,4-dimethyl-9-thia-3-azabicyclo[3.3.1]non-2-ene 9,9-dioxide] |  |  |  | 166 | 130 | 55
Cc1cc(Cl)cnc1C(=O)Nc1ccc(F)c([C@@]2(C)N=C(N)[C@@]3(C)CCC[C@@H]2S3(=O)=O)c1 [Example 3, N-(3-((1S,2R,5R)-4-Amino-2,5-dimethyl-9,9-dioxido-9-thia-3-azabicyclo[3.3.1]non-3-en-2-yl)-4-fluorophenyl)-5-chloro-3-methylpicolinamide] |  |  |  | 119 | 2 | 7
Cc1cc(Cl)cnc1C(=O)Nc1ccc(F)c([C@@]2(C)N=C(N)[C@]3(C)CCC[C@H]2S3(=O)=O)c1 [Example 4, N-(3-((1R,2R,5S)-4-Amino-2,5-dimethyl-9,9-dioxido-9-thia-3-azabicyclo[3.3.1]non-3-en-2-yl)-4-fluorophenyl)-5-chloro-3-methylpicolinamide] |  |  |  | 270 | 7 | 20
Cc1cc(OC(F)F)cnc1C(=O)Nc1ccc(F)c([C@@]2(C)N=C(N)[C@@]3(C)CCC[C@@H]2S3(=O)=O)c1 [Example 5, N-(3-((1S,2R,5R)-4-Amino-2,5-dimethyl-9,9-dioxido-9-thia-3-azabicyclo[3.3.1]non-3-en-2-yl)-4-fluorophenyl)-5-(difluoromethoxy)-3-methylpicolinamide] |  |  |  | 105 | 3 | 4
Cc1cc(OC(F)F)cnc1C(=O)Nc1ccc(F)c([C@@]2(C)N=C(N)[C@]3(C)CCC[C@H]2S3(=O)=O)c1 [Example 6, N-(3-((1R,2R,5S)-4-Amino-2,5-dimethyl-9,9-dioxido-9-thia-3-azabicyclo[3.3.1]non-3-en-2-yl)-4-fluorophenyl)-5-(difluoromethoxy)-3-methylpicolinamide] |  |  |  | 215 | 10 | 4
Cc1cc(Cl)cnc1C(=O)Nc1ccc(F)c([C@@]2(C)N=C(N)[C@@]3(C)CCC[C@]2(F)S3(=O)=O)c1 [Example 7, N-(3-((1S,2R,5R)-4-Amino-1-fluoro-2,5-dimethyl-9,9-dioxido-9-thia-3-azabicyclo[3.3.1]non-3-en-2-yl)-4-fluorophenyl)-5-chloro-3-methylpicolinamide] |  |  |  | 22.6 | 7 | 220
Cc1cc(Cl)cnc1C(=O)Nc1ccc(F)c([C@@]2(C)N=C(N)[C@]3(C)CCC[C@@]2(F)S3(=O)=O)c1 [Example 8, N-(3-((1R,2R,5S)-4-Amino-1-fluoro-2,5-dimethyl-9,9-dioxido-9-thia-3-azabicyclo[3.3.1]non-3-en-2-yl)-4-fluorophenyl)-5-chloro-3-methylpicolinamide] |  |  |  | 22.7 | 4 | 113
Cc1cc(OC(F)F)cnc1C(=O)Nc1ccc(F)c([C@@]2(C)N=C(N)[C@@]3(C)CCC[C@]2(F)S3(=O)=O)c1 [Example 9, N-(3-((1S,2R,5R)-4-Amino-1-fluoro-2,5-dimethyl-9,9-dioxido-9-thia-3-azabicyclo[3.3.1]non-3-en-2-yl)-4-fluorophenyl)-5-(difluoromethoxy)-3-methylpicolinamide] |  |  |  | 19 | 7 | 149
Cc1cc(OC(F)F)cnc1C(=O)Nc1ccc(F)c([C@@]2(C)N=C(N)[C@]3(C)CCC[C@@]2(F)S3(=O)=O)c1 [Example 10, N-(3-((1R,2R,5S)-4-Amino-1-fluoro-2,5-dimethyl-9,9-dioxido-9-thia-3-azabicyclo[3.3.1]non-3-en-2-yl)-4-fluorophenyl)-5-(difluoromethoxy)-3-methylpicolinamide] |  |  |  | 8.75 | 9 | 35
Cc1cc(Cl)cnc1C(=O)Nc1ccc(F)c([C@@]2(C)N=C(N)[C@@]3(C)CCC[C@]2(C)S3(=O)=O)c1 [Example 11, N-(3-((1S,2R,5R)-4-Amino-1,2,5-trimethyl-9,9-dioxido-9-thia-3-azabicyclo[3.3.1]non-3-en-2-yl)-4-fluorophenyl)-5-chloro-3-methylpicolinamide] |  |  |  | 51.5 | 6 | 31
Cc1cc(Cl)cnc1C(=O)Nc1ccc(F)c([C@@]2(C)N=C(N)[C@]3(C)CCC[C@@]2(C)S3(=O)=O)c1 [Example 12, N-(3-((1R,2R,5S)-4-Amino-1,2,5-trimethyl-9,9-dioxido-9-thia-3-azabicyclo[3.3.1]non-3-en-2-yl)-4-fluorophenyl)-5-chloro-3-methylpicolinamide] |  |  |  | 29.7 | 5 | 33
Cc1cc(OC(F)F)cnc1C(=O)Nc1ccc(F)c([C@@]2(C)N=C(N)[C@@]3(C)CCC[C@]2(C)S3(=O)=O)c1 [Example 13, N-(3-((1S,2R,5R)-4-Amino-1,2,5-trimethyl-9,9-dioxido-9-thia-3-azabicyclo[3.3.1]non-3-en-2-yl)-4-fluorophenyl)-5-(difluoromethoxy)-3-methylpicolinamide] |  |  |  | 8.64 | 13 | 6
